Here are results for one compound from patent US5360925A, “Dual inhibitors of no synthase and cyclooxygenase, process for their preparation and therapeutical compositions containing them” (priority 1992, dated 1994).

The IC50 is the point on the concentration scale where inhibition reaches its midpoint.

Assay [1] addresses T1, cyclooxygenase (Oryctolagus cuniculus, UniProt O97554).
T1 construct: arachidonic acid induced aggregation of washed rabbit platelets; endogenous in cells; host or cells: washed platelets of male New Zealand rabbits
T1 sequence (O97554 31-606): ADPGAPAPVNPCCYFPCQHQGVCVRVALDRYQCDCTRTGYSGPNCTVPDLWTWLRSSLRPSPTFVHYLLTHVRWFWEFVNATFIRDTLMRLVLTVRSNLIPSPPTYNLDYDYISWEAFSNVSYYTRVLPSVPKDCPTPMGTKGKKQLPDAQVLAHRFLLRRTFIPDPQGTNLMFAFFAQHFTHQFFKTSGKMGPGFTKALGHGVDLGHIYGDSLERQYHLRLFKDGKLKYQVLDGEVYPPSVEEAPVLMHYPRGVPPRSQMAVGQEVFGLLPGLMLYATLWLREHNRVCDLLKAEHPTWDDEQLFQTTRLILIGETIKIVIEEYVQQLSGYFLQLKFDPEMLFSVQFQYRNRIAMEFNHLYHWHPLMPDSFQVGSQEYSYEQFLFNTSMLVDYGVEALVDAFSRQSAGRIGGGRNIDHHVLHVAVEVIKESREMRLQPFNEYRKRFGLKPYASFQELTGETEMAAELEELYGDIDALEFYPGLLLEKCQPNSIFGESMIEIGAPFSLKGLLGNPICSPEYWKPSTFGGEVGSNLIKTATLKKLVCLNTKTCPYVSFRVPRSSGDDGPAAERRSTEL
Put plainly: In vitro effect on arachidonic acid induced aggregation of washed rabbit platelets. In kind it is cell-based. As to conditions: arachidonic acid 0.5 mM, read-out: IC50 (arachidonic acid induced platelet aggregation).
Protocol: This protocol was used to assay the effect of the compounds on the cyclooxygenase. […] Blood was taken from the auricular artery of male New Zealand rabbit (2.5 kg mean body weight) on ACD (citric acid/sodium citrate/dextrose) as anticoagulant. The washed platelets were prepared and then transferred in the cuvet of the aggregometer (Chronolog aggregometer Coultronics).

The target of assay [2] is T2, cyclooxygenase (Mus musculus, UniProt Q05769).
T2 construct: main cyclooxygenase products produced by J774A1 cell line; endogenous in cells
T2 sequence (Q05769 18-604): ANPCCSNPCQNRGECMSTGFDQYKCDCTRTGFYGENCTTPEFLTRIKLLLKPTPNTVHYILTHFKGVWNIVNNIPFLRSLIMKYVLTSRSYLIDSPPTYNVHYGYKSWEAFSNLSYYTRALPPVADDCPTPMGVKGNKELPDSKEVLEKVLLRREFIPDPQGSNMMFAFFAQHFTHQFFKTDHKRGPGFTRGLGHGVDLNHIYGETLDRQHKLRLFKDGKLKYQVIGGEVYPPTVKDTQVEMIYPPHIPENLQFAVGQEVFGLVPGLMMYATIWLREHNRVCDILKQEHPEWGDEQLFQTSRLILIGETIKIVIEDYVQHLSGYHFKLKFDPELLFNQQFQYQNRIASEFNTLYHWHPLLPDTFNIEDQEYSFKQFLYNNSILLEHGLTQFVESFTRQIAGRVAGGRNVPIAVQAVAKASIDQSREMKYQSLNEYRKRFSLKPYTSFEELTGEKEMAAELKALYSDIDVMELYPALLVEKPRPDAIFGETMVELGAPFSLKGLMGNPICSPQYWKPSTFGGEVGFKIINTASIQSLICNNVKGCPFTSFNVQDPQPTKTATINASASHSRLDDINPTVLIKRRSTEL
Put plainly: In vitro effect on prostaglandin (6 keto PGF1α) production induced by LPS+IFNγ on J774A1 monocyte/macrophage cell line. As to conditions: LPS+IFNγ, J774A1 culture media. In kind it is cell-based, murine. As for the experimental part: 6-In vitro effect on prostaglandin production induced by LPS+IFNγ on J774A1 monocyte/macrophage cell line:
Levels of one of the main cyclooxygenase products produced by J774A1 cell line (i.e.: 6 keto PGF1α) the stable metabolite of PGI2 were assessed in the culture media by a specific radioimmunoassay (NEN, Kit NEK 025).

Assay [3] deals with vascular reactivity to methoxamine. Put plainly: In vivo effect on endotoxin treated pithed rat. The settings on record: dose 150 mg/kg/h; endotoxin 300 μg/kg/h; control 79 ± 9, EDTX 278 ± 34. As for the experimental part:
10-In vivo effect on endotoxin treated pithed rat:
As previously reported, the association of an inhibitor of NO synthase and an inhibitor of cyclooxygenase has a synergistic effect to restore the blood pressure and vascular reactivity in an endotoxinic or septic animal.
Male Sprague Dawley rats (body weight 280-320 g) were pithed. One hour after pithing, animals were given endotoxin (EDTX, Escherichia Coli, lipopolysaccharide, O III, B4 =300 μg/kg/h) for 60 minutes. […]

As to `CC(=O)Oc1ccccc1C(=O)O` [aspirin, acetylsalicylic acid, reference compound], in assay [1], the IC50 worked out at 200 µM. For the same compound, the “effect on release of 6 keto PGF1α” value in assay [2] is “abolished in a dose dependent manner”. For the same compound, in assay [3], the “vascular reactivity to methoxamine DE50” value amounted to 136 ± 29 µg/kg.
